# From patent US7307098B2, “Indole derivatives and drugs containing the same” (Meiji Dairies Corporation, priority 2002, dated 2007)
# Test system: neurospheres which are clusters of neural stem cells
# Assay: Test Example 1: differentiation of neurospheres into neurons (immunofluorescence, confocal microscope)
# Assay type: cell-based
# Conditions: Mus musculus, Neural stem cell; test compound 10^−6M, cultivation typically 24 hours, Anti-MAP2 labeling of neurons, control = 100; read-out: Percentage of neuron in relation to control
# Procedure: Neural stem cell was produced from […] in accordance with the method of Weiss and Reynolds (1996). More specifically, striate body was extirpated from mouse embryo, and the cells were dispersed in a culture medium containing EGF (20 ng/mL). The cells were cultured under the conditions of 5% CO2 and 37° C. for 5 days. The culture was then centrifuged at 400 rpm in Dissociation Medium (manufactured by Sigma) for 5 minutes, and neurospheres which are cluster of the neural stem cells were obtained. The neurospheres were dispersed in the culture medium, and cultivation was conducted under the same conditions to produce secondary neurospheres.
# A sterilized cover glass was placed in the well of 24 well plate, treated overnight with polyornithine solution (30 μg/mL), and washed three times with phosphate buffered saline. Neurospheres were inoculated on the cover glass at 20 to 50 cells/cover glass. The test compound that has been adjusted to the concentration of 10^−6M with ethanol was applied to the cover glass, and the cultivation was continued for a period sufficient for differentiation of the neurospheres (typically 24 hours). The indole derivatives obtained in the Examples were used for the test compounds, and the control cells were cultivated without using such test compound.
# Sufficiently differentiated neurospheres were fixed with 4% p-formaldehyde, washed with phosphate buffered saline, and after adding Triton-X100, washed again with phosphate buffered saline. Anti-MAP2 (2a+2b) (Sigma) which is a mouse monoclonal antibody used for labeling neurons and Anti-O4 (Boeringher) which is a mouse monoclonal antibody used for labeling oligodendrocytes, and Anti-GFAP (DAKO) which is a rabbit monoclonal antibody used for labeling astrocytes were added, and the cultivation was continued at room temperature for 1 hour or overnight at 4° C. Anti-mouse IgM antibody and fluorescence indicator were added, and cultivation was continued at room temperature for 1 hour. After washing with phosphate buffered saline, the cover glass was placed on a confocal microscope to observe the differentiation of the neurospheres.
row,SMILES,activity at 1 µM [%]
1,"COc1ccc2[nH]cc(CCCCCCCCCCCCCCO)c2c1 [1-1a, n=14, 14-(5-methoxy-1H-indole-3-yl)-tetradecane-1-ol]",143
2,"COc1ccc2[nH]cc(CCCCCCCCCCCCCCCCO)c2c1 [1-1a, n=16, 16-(5-methoxy-1H-indole-3-yl)-hexadecane-1-ol]",168
3,"COc1ccc2[nH]cc(CCCCCCCCCCCCCCCCCCO)c2c1 [1-1a, n=18, 18-(5-methoxy-1H-indole-3-yl)-octadecane-1-ol]",169
4,"COc1cccc2[nH]cc(CCCCCCCCCCCCCCCCO)c12 [1-1b, n=16, 16-(4-methoxy-1H-indole-3-yl)-hexadecane-1-ol]",133
5,"COc1ccc2c(CCCCCCCCCCCCCCCCO)c[nH]c2c1 [1-1c, n=16, 16-(6-methoxy-1H-indole-3-yl)-hexadecane-1-ol]",135
6,"COc1ccc2[nH]c(CCCCCCCCCCCCCCCCO)cc2c1 [1-2a, n=16, 16-(5-methoxy-1H-indole-2-yl)-hexadecane-1-ol]",135
7,"COc1cccc2[nH]c(CCCCCCCCCCCCCCO)cc12 [1-2b, n=14, 14-(4-methoxy-1H-indole-2-yl)-tetradecane-1-ol]",147
8,"COc1cccc2[nH]c(CCCCCCCCCCCCCCCCO)cc12 [1-2b, n=16, 16-(4-methoxy-1H-indole-2-yl)-hexadecane-1-ol]",184
9,"COc1cccc2cc(CCCCCCCCCCCCCCCCO)[nH]c12 [1-2c, n=16, 16-(7-methoxy-1H-indole-2-yl)-hexadecane-1-ol]",128
